Source: patent US20220089602A1, “COMPOUNDS THAT INDUCE FERROPTIC CELL DEATH” (The Board of Trustees of the University of Illinois, priority 2019, published 2022)

Assays:
TXN = molecular target: T1, TXN (Homo sapiens, UniProt P10599); assay: Biotin-streptavidin pulldown with P29, competition by ferroptocide, LC/LC-MS/MS; assay type: binding; conditions: DMSO/ferroptocide spectral count ratio of P29-labeled enriched proteins
T1 construct: endogenous in cells; host or cells: HCT 116 (and ES-2) cells
Experimental: (§1) ES-2 and HCT 116 (20×10^6 cells/flask) were plated in T175 flasks and treated with DMSO or 20 µM ferroptocide for 1 hr followed by treatment with 20 μM P29 for 1 hr. Cells were lysed via sonication (6500 g, 4 min) in DPBS and the soluble proteome was isolated after […] (45000 g, 45 min). Bradford assay was used to determine protein concentration. The soluble protein lysates in DPBS (pH 7.4) (500 μL, 2 mg/mL) were treated with biotin-azide (100 μM, 50× stock in DMSO), TCEP (1 mM, 50× fresh stock in water), TBTA ligand (100 μM, 17× stock in DMSO:t-butanol=1:4), and copper(II) sulfate (1 mM, 50× stock in water) followed by incubation at r.t. for 1 hr. Samples were centrifuged (6500 g, 4 min, 4° C.) and the supernatant was discarded. The pellets were resuspended in cold methanol by sonication (2×) and then were solubilized in DPBS containing 1.2% SDS via sonication and heating (90° C., 5 min). A final SDS concentration of 0.2% was achieved after addition of 5 mL of DPBS to the SDS-solubilized proteome samples. The solution was incubated overnight at 4° C. with 100 μL of streptavidin-agarose beads (ThermoFisher, washed 3× with DPBS to remove storage buffer). Samples were rotated at 22° C. for 2 hr before being washed by 5 mL 0.2% SDS/DPBS, 3×5 mL DPBS, and 3×5 mL water. The beads were pelleted by centrifugation (1400×g, 3 min) between washes.
(§2) The washed beads were suspended in 500 μL of 6 M urea/DPBS and 10 mM DTT (from 20× stock in water) and heated for 20 min on a 65° C. heat block. Upon addition of iodoacetamide (20 mM from 50× stock in water), samples were allowed to react at 37° C. for 30 min while shaking. Following reduction and alkylation, the beads were pelleted by centrifugation and resuspended in 200 μL of 2 M urea/DPBS, 1 mM CaCl2) (100× stock in water), and sequencing-grade trypsin (2 μg). The bead digestion occurred overnight at 37° C. while shaking. Next day, the beads were pelleted by centrifugation and washed with 2×50 μL water. The washes were combined with the supernatant from the trypsin digestion step, and after addition of formic acid (15 μL) to each sample, they were stored at −20° C. until mass spectrometry analysis.
(§3) LC/LC-MS/MS analysis was performed on an LTQ-Orbitrap Discovery mass spectrometer (ThermoFisher) coupled to an Agilent 1200 series HPLC. Peptide digests were pressure loaded onto a 250 m fused silica desalting column packed with 4 cm of Aqua C18 reverse phase resin (Phenomenex). The peptides were eluted onto a biphasic column (100 m fused silica with a 5, tip, packed with 10 cm C18 and 4 cm Partisphere strong cation exchange resin (SCX, Whatman) using a gradient 5-100% Buffer B in Buffer A (Buffer A: 95% water, 5% acetonitrile, 0.1% formic acid; Buffer B: 20% water, 80% acetonitrile, 0.1% formic acid). The peptides were then eluted from the SCX onto the C18 resin and into the mass spectrometer using 4 salt steps previously described (Nat. Protoc. 2, 1414-1425, (2007)). The flow rate through the column was set to ˜0.25 μL/min and the spray voltage was set to 2.75 kV. One full MS scan (FTMS) (400-1800 MW) was followed by 8 data dependent scans (ITMS) of the n^th most intense ions. The tandem MS data were searched using the SEQUEST algorithm using a concatenated target/decoy variant of the human UniProt database. A static modification of +57.02146 on cysteine was specified to account for alkylation by iodoacetamide. MS2 spectra matches were assembled into protein identifications and filtered using DTASelect2.0 to generate a list of protein hits with a peptide false-discovery rate of 5%. The mass spectrometry proteomics data have been deposited to the ProteomeXchange Consortium via the PRIDE [1] partner repository with the dataset identifier PXD012805.

PTGES2 = molecular target: T2, PTGES2 (Homo sapiens, UniProt Q9H7Z7); assay: as above; assay type: binding; conditions: DMSO/ferroptocide spectral count ratio of P29-labeled enriched proteins
T2 construct: endogenous in cells; host or cells: HCT 116 (and ES-2) cells
Experimental: as §1, §2, §3

KEAP1 = molecular target: T3, KEAP1 (Homo sapiens, UniProt Q14145); assay: as above; assay type: binding; conditions: DMSO/ferroptocide spectral count ratio of P29-labeled enriched proteins
T3 construct: endogenous in cells; host or cells: HCT 116 (and ES-2) cells
Experimental: as §1, §2, §3

GSTO1 = molecular target: T4, GSTO1 (Homo sapiens, UniProt P78417); assay: as above; assay type: binding; conditions: DMSO/ferroptocide spectral count ratio of P29-labeled enriched proteins
T4 construct: endogenous in cells; host or cells: HCT 116 (and ES-2) cells
Experimental: as §1, §2, §3

TXNRD2 = molecular target: T5, TXNRD2 (Homo sapiens, UniProt Q9NNW7); assay: as above; assay type: binding; conditions: DMSO/ferroptocide spectral count ratio of P29-labeled enriched proteins
T5 construct: HCT 116 cells were pre-treated with ferroptocide or DMSO, followed by treatment with P29; endogenous in cells; host or cells: HCT 116 (and ES-2) cells
Experimental: as §1, §2, §3

[1] = system: 4T1 triple negative breast cancer cells; assay: 4T1 syngeneic subcutaneous tumor model, immunocompetent mice; assay type: in vivo; conditions: 50 mg/kg i.p., twice a week, five doses, Balb/c
Experimental: The protocol was approved by the IACUC at the University of Illinois at Urbana-Champaign (Protocol Number: 17192). 9-week old female Balb/C or SCID mice (Charles River) were lightly sedated with i.p. xylazine/ketamine/saline solution. Following sedation, 4T1 murine breast cancer cells suspended in chilled HBSS (100 μL of 4×10^6 cells/mL) were injected subcutaneously into the right flank of shaved and sedated mice using an insulin syringe. On day 8 after inoculation, mice were randomized with 7 mice per group for vehicle or ferroptocide treatment. Vehicle (PEG400) or ferroptocide (50 mg/kg) was administered intraperitoneally as a PEG400 solution twice a week for 5 times. Tumor measurements were performed every 3 or 4 days using a caliper and tumor volume was calculated using the equation (0.5×l×w^2). On day 23 after the 4T1 cells inoculation, mice were sacrificed. Tumors were then surgically removed, and their mass was measured.

[2] = In vitro glutathione assay (LC-MS); assay type: physicochemical; conditions: 100 μM compound, 5 mM glutathione, PBS, 37° C.
Experimental: To an eppendorf tube added, 245 μL of 1×PBS, 5 μL of 10 mM DMSO stock of ferroptocide or P23 and 250 μL of reduced GSH (5 mM final concentration). Reactions were vortexed briefly and incubated at 37° C. Adduct formation was monitored at the indicated time points (0, 0.5, 1, 2, 3, 24 hr) by mixing an aliquot of 50 μL from the reaction mixture with 50 μL of MeOH before LC/MS analysis.

T5 sequence (Q9NNW7 37-524): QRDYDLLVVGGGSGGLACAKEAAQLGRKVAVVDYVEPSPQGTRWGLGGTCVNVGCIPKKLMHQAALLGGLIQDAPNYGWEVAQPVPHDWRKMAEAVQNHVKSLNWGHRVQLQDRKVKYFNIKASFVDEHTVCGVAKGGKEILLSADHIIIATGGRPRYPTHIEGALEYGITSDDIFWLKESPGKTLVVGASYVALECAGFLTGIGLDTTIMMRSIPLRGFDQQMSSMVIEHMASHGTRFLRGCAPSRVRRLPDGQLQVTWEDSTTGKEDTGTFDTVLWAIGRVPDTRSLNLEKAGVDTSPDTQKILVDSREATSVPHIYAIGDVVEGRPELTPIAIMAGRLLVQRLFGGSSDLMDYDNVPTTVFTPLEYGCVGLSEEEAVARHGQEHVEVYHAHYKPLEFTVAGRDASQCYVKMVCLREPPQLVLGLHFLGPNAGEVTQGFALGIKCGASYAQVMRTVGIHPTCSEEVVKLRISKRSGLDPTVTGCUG
T4 sequence (P78417 whole entry): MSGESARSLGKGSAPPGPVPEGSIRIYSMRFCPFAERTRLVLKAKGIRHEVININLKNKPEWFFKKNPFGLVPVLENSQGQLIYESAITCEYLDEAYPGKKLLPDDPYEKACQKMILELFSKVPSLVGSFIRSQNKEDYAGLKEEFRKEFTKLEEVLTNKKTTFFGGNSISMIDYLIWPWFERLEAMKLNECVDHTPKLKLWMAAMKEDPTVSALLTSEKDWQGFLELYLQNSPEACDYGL
T2 sequence (Q9H7Z7 whole entry): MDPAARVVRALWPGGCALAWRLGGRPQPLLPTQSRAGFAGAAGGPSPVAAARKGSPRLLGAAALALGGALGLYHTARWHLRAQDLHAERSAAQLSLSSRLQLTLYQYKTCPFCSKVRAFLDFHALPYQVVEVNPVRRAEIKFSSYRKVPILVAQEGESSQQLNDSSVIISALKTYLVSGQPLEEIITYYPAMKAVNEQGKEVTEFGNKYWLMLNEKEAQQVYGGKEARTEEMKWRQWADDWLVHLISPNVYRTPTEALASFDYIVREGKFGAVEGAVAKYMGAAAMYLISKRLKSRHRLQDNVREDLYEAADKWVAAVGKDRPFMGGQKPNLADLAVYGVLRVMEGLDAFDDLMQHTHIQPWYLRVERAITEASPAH
T3 sequence (Q14145 whole entry): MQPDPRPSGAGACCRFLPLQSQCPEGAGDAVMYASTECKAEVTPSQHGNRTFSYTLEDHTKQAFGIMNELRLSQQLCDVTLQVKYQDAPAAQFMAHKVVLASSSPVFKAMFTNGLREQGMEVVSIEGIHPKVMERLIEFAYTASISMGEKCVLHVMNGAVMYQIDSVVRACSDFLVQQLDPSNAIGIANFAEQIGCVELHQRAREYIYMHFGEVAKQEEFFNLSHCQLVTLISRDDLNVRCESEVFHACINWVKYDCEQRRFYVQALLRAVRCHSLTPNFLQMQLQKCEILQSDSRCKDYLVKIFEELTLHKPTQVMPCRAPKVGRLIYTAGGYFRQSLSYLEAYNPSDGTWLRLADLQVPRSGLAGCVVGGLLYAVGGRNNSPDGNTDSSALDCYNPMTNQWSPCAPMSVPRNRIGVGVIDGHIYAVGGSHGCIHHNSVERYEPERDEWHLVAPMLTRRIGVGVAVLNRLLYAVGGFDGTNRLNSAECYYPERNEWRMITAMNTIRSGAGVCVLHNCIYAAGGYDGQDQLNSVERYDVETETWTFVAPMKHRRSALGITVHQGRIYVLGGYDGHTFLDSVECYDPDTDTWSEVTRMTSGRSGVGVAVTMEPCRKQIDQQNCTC
T1 sequence (P10599 whole entry): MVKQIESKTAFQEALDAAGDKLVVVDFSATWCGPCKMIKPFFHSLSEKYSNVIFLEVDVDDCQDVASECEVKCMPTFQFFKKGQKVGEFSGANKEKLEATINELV

Compound: C[C@@H]1CC[C@@]23C[C@H](O)C(=O)[C@@]2(O)[C@]1(C)[C@H](OC(=O)CCl)C[C@@H](C1=CCn2c(=O)n(-c4ccccc4)c(=O)n2C1)[C@@H]3C [Compound P18, ferroptocide]
- Fold Change (TXN): 11.1
- Fold Change (PTGES2): 18
- Fold Change (KEAP1): 3.1
- Fold Change (GSTO1): 3.6
- Fold Change (TXNRD2): 2
- effect on subcutaneous 4T1 tumor growth (in words) [1]: inhibits subcutaneous 4T1 tumor growth
- tumor growth retardation (tumor volume) ([1]; compared to vehicle): 40%
- reactivity with excess glutathione (in words) [2]: reacts slowly
- Compound remaining (%) ([2]; 0.5 hr): 95.1%
- GSH-Ferroptocide adduct (%) ([2]; 0.5 hr): 4.9%
- Compound remaining (%) ([2]; 1 hr): 81.8%
- GSH-Ferroptocide adduct (%) ([2]; 1 hr): 18.2%
- GSH-Ferroptocide adduct (%) ([2]; 2 hr): 33.2%
- Compound remaining (%) ([2]; 2 hr, listed as Ferroptocide): 66.8%
- Compound remaining (%) ([2]; 2 hr, listed as ferroptocide): 67%
- Compound remaining (%) ([2]; 3 hr): 61.9%
- GSH-Ferroptocide adduct (%) ([2]; 3 hr): 38.1%
- Compound remaining (%) ([2]; 24 hr): 27.5%
- GSH-Ferroptocide adduct (%) ([2]; 24 hr): 72.5%
